Experimental data reported in ChEMBL document CHEMBL4145553, “Design, synthesis, and biological evaluation of novel amide and hydrazide based thioether analogs targeting Histone deacteylase (HDAC) enzymes” (Eur J Med Chem, 2018).
Active and inactive are the calls of the source. No cut-off for these calls is given here.

Key:
SNB-75 [1] = test: Growth inhibition of human SNB75 cells assessed as cell growth at 10^-4 M incubated for 48 hrs by sulforhodamine B assay relative to control; type: functional; details: SNB-75, 48 h, read-out: Activity
UACC-62 [2] = test: Growth inhibition of human UACC62 cells assessed as cell growth at 10^-6 M incubated for 48 hrs by sulforhodamine B assay relative to control; type: functional; details: UACC-62, 48 h, read-out: Activity
MCF7 [3] = test: Growth inhibition of human MCF7 cells assessed as cell growth at 10^-4 M incubated for 48 hrs by sulforhodamine B assay relative to control; type: functional; details: MCF7, 48 h, read-out: Activity
OVCAR-3 = test: Growth inhibition of human OVCAR3 cells assessed as cell growth at 10^-4 M incubated for 48 hrs by sulforhodamine B assay relative to control; type: functional; details: OVCAR-3, 48 h, read-out: Activity
MCF7 [4] = test: Growth inhibition of human MCF7 cells assessed as cell growth at 10^-5 M incubated for 48 hrs by sulforhodamine B assay relative to control; type: functional; details: MCF7, 48 h, read-out: Activity
HL-60 [5] = test: Downregulation of HDAC8 mRNA expression in human HL60 cells by qRT-PCR method; type: functional, cell-based
MDA-MB-435 = test: Antiproliferative activity against human MDA-MB-435 cells after 24 hrs by MTT assay; type: functional
SW-620 [6] = test: Growth inhibition of human SW620 cells assessed as cell growth at 10^-5 M incubated for 48 hrs by sulforhodamine B assay relative to control; type: functional; details: SW-620, 48 h, read-out: Activity
TK-10 [7] = test: Growth inhibition of human TK10 cells assessed as cell growth at 10^-5 M incubated for 48 hrs by sulforhodamine B assay relative to control; type: functional; details: TK-10, 48 h, read-out: Activity
SK-MEL-2 [8] = test: Growth inhibition of human SK-MEL-2 cells incubated for 48 hrs by sulforhodamine B assay; type: functional; details: SK-MEL-2, 48 h
SW-620 [9] = test: Growth inhibition of human SW620 cells assessed as cell growth at 10^-4 M incubated for 48 hrs by sulforhodamine B assay relative to control; type: functional; details: SW-620, 48 h, read-out: Activity
IGROV-1 = test: Growth inhibition of human IGROV1 cells assessed as cell growth at 10^-8 M incubated for 48 hrs by sulforhodamine B assay relative to control; type: functional; details: IGROV-1, 48 h, read-out: Activity
HT-29 [10] = test: Growth inhibition of human HT-29 cells assessed as cell growth at 10^-7 M incubated for 48 hrs by sulforhodamine B assay relative to control; type: functional; details: HT-29, 48 h, read-out: Activity
UACC-257 = test: Growth inhibition of human UACC257 cells assessed as cell growth at 10^-7 M incubated for 48 hrs by sulforhodamine B assay relative to control; type: functional; details: UACC-257, 48 h, read-out: Activity
HT-29 [11] = test: Growth inhibition of human HT-29 cells assessed as cell growth at 10^-4 M incubated for 48 hrs by sulforhodamine B assay relative to control; type: functional; details: HT-29, 48 h, read-out: Activity
KM12 = test: Growth inhibition of human KM12 cells incubated for 48 hrs by sulforhodamine B assay; type: functional; details: KM12, 48 h
SK-MEL-2 [12] = test: Growth inhibition of human SK-MEL-2 cells assessed as cell growth at 10^-4 M incubated for 48 hrs by sulforhodamine B assay relative to control; type: functional; details: SK-MEL-2, 48 h, read-out: Activity
SNB-19 = test: Growth inhibition of human SNB19 cells assessed as cell growth at 10^-8 M incubated for 48 hrs by sulforhodamine B assay relative to control; type: functional; details: SNB-19, 48 h, read-out: Activity
T47D = test: Growth inhibition of human T47D cells incubated for 48 hrs by sulforhodamine B assay; type: functional
K562 = test: Growth inhibition of human K562 cells assessed as cell growth at 10^-5 M incubated for 48 hrs by sulforhodamine B assay relative to control; type: functional; details: K562, 48 h, read-out: Activity
HL-60 [13] = test: Induction of apoptosis in human HL60 cells assessed as late apoptotic cells by propidium iodide/Annexin V staining based flow cytometry (reference value: 0.54%); type: functional
DU-145 = test: Growth inhibition of human DU145 cells incubated for 48 hrs by sulforhodamine B assay; type: functional; details: DU-145, 48 h
NCI-H322M = test: Growth inhibition of human NCI-H322M cells assessed as cell growth at 10^-8 M incubated for 48 hrs by sulforhodamine B assay relative to control; type: functional; details: read-out: Activity
Histone deacetylase 2 = Histone deacetylase 2 (Homo sapiens, UniProt Q92769); test: Inhibition of human HDAC2 by ELISA
Chain of Histone deacetylase 2 (Q92769 whole entry): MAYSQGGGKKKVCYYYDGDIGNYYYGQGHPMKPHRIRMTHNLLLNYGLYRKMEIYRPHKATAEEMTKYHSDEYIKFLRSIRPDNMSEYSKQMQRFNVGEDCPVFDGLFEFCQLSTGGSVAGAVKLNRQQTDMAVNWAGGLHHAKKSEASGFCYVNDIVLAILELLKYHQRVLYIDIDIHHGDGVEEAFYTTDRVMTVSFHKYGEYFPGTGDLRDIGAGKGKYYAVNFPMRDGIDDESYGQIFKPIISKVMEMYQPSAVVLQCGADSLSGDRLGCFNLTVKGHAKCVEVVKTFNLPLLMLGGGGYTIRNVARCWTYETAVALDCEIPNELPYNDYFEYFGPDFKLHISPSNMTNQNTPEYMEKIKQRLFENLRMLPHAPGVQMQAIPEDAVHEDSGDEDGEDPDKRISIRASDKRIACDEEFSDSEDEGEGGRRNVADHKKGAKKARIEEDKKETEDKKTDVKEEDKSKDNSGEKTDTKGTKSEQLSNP

NCI-H460 = test: Growth inhibition of human NCI-H460 cells assessed as cell growth at 10^-8 M incubated for 48 hrs by sulforhodamine B assay relative to control; type: functional; details: NCI-H460, 48 h, read-out: Activity
A498 = test: Growth inhibition of human A498 cells assessed as cell growth at 10^-7 M incubated for 48 hrs by sulforhodamine B assay relative to control; type: functional; details: A498, 48 h, read-out: Activity
UACC-62 [14] = test: Growth inhibition of human UACC62 cells incubated for 48 hrs by sulforhodamine B assay; type: functional; details: UACC-62, 48 h
SNB-75 [15] = test: Growth inhibition of human SNB75 cells incubated for 48 hrs by sulforhodamine B assay; type: functional; details: SNB-75, 48 h
TK-10 [16] = test: Growth inhibition of human TK10 cells incubated for 48 hrs by sulforhodamine B assay; type: functional; details: TK-10, 48 h
[17] = read-out: LC50 (the source's name)
[18] = read-out: pLC50 (the source's name) (converted)

Compound: CCS/C(Nc1ccccc1)=C(\C#N)C(=O)N/N=C\c1ccc(Cl)cc1Cl
- growth at 100 µM (SNB-75 [1]): -17%
- growth at 1 µM (UACC-62 [2]): 69%
- growth at 100 µM (MCF7 [3]): 9%
- growth at 100 µM (OVCAR-3): -23%
- growth at 10 µM (MCF7 [4]): 14%
- Activity (HL-60 [5]): Active
- Activity (MDA-MB-435): Dose-dependent effect
- GI50 (MDA-MB-435; Homo sapiens, MDA-MB-435, 24 h): 0.42 µM
- growth at 10 µM (SW-620 [6]): 31%
- growth at 10 µM (TK-10 [7]): 50%
- GI50 (SK-MEL-2 [8]; read-out: GI50): 3.24 µM
- CC50 (SK-MEL-2 [8]; [17]): > 100 µM
- TGI (SK-MEL-2 [8]; read-out: TGI): 43.6 µM
- GI50 (SK-MEL-2 [8]; read-out: pGI50 (converted)): 3.24 µM
- CC50 (SK-MEL-2 [8]; [18]): > 100 µM
- TGI (SK-MEL-2 [8]; read-out: pTGI): 43.7 µM
- growth at 100 µM (SW-620 [9]): 25%
- growth at 0.01 µM (IGROV-1): 106%
- growth at 0.1 µM (HT-29 [10]): 101%
- growth at 0.1 µM (UACC-257): 94%
- growth at 100 µM (HT-29 [11]): 9%
- GI50 (KM12; read-out: GI50): 4.04 µM
- CC50 (KM12; [17]): > 100 µM
- TGI (KM12; read-out: TGI): > 100 µM
- GI50 (KM12; read-out: pGI50 (converted)): 4.07 µM
- CC50 (KM12; [18]): > 100 µM
- TGI (KM12; read-out: pTGI): > 100 µM
- growth at 100 µM (SK-MEL-2 [12]): -9%
- growth at 0.01 µM (SNB-19): 97%
- GI50 (T47D; read-out: GI50): 4.03 µM
- CC50 (T47D; [17]): > 100 µM
- TGI (T47D; read-out: TGI): > 100 µM
- GI50 (T47D; read-out: pGI50 (converted)): 4.07 µM
- CC50 (T47D; [18]): > 100 µM
- TGI (T47D; read-out: pTGI): > 100 µM
- growth at 10 µM (K562): 10%
- Activity (HL-60 [13]): 8.54%
- GI50 (DU-145; read-out: GI50): 3.57 µM
- CC50 (DU-145; [17]): > 100 µM
- TGI (DU-145; read-out: TGI): > 100 µM
- GI50 (DU-145; read-out: pGI50 (converted)): 3.55 µM
- CC50 (DU-145; [18]): > 100 µM
- TGI (DU-145; read-out: pTGI (converted)): > 100 µM
- growth at 0.01 µM (NCI-H322M): 94%
- IC50 (Histone deacetylase 2): 0.02 µM
- growth at 0.01 µM (NCI-H460): 100%
- growth at 0.1 µM (A498): 78%
- GI50 (UACC-62 [14]; read-out: GI50): 2.74 µM
- CC50 (UACC-62 [14]; [17]): > 100 µM
- TGI (UACC-62 [14]; read-out: TGI): > 100 µM
- GI50 (UACC-62 [14]; read-out: pGI50 (converted)): 2.75 µM
- CC50 (UACC-62 [14]; [18]): > 100 µM
- TGI (UACC-62 [14]; read-out: pTGI): > 100 µM
- GI50 (SNB-75 [15]; read-out: GI50): 2.15 µM
- CC50 (SNB-75 [15]; [17]): > 100 µM
- TGI (SNB-75 [15]; read-out: TGI): 9.37 µM
- GI50 (SNB-75 [15]; read-out: pGI50 (converted)): 2.14 µM
- CC50 (SNB-75 [15]; [18]): > 100 µM
- TGI (SNB-75 [15]; read-out: pTGI (converted)): 9.33 µM
- GI50 (TK-10 [16]; read-out: GI50): 10.2 µM
- CC50 (TK-10 [16]; [17]): > 100 µM
- TGI (TK-10 [16]; read-out: TGI): > 100 µM
- GI50 (TK-10 [16]; read-out: pGI50 (converted)): 10.2 µM
- CC50 (TK-10 [16]; [18]): > 100 µM
- TGI (TK-10 [16]; read-out: pTGI): > 100 µM
